Values quoted from earlier work in US4039519A, “Broad spectrum antibiotics and method” (Chimie & Biologie, priority 1975, dated 1977).

Conditions: oral administration; cited from earlier work

In the case of colistine, the “passage of the gastro-intestinal barrier (known)” value is listed as “cannot pass the gastro-intestinal barrier”.
